Source: patent US20160137639A1, “TRIAZOLE-ISOXAZOLE COMPOUND AND MEDICAL USE THEREOF” (JAPAN TOBACCO INC., priority 2012, published 2016)
Where two headings read alike, the source gives them in different places.

Key:
[1] = molecular target: T1, human RORγ (Homo sapiens, UniProt P51449); assay: Luciferase reporter gene assay of inhibitory effect against RORγ transcriptional activity (GAL4-hRORγ plasmid in CHO cells); format: cell-based
T1 construct: human, NM_005060.3 and from Ser253 to Lys518; expressed in transfected cells; host or cells: CHO cells (transient co-transfection with pG5-Luc reporter)
T1 sequence (P51449 253-518): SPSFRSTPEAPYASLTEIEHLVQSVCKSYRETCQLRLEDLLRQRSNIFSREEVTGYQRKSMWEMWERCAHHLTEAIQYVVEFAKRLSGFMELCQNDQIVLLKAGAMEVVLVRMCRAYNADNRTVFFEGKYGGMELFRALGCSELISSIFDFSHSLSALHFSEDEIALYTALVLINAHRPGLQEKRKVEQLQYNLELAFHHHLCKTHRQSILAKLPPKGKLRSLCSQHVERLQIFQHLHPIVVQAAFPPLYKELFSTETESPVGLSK

[2] = molecular target: T2, mouse RORγ (Mus musculus, UniProt P51450); assay: Luciferase reporter gene assay of inhibitory effect against RORγ transcriptional activity (GAL4-mRORγ plasmid in CHO cells); format: cell-based
T2 construct: mouse, NM_011281.2 and from Ile251 to Lys516; expressed in transfected cells; host or cells: CHO cells (transient co-transfection with pG5-Luc reporter)
T2 sequence (P51450 251-516): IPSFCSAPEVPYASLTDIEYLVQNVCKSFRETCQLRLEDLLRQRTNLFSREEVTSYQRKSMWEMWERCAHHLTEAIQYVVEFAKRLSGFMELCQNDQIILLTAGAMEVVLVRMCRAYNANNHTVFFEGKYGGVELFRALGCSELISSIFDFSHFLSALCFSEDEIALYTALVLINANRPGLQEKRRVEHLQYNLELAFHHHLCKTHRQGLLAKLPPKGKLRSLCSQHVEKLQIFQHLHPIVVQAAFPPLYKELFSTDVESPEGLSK
Method in brief: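 Readout is intracellular luciferase after 2-day compound exposure (8 concentrations, 0.1% DMSO) in CHO cells expressing GAL4 fused to mouse RORγ LBD residues Ile251–Lys516 plus pG5-Luc reporter. EC50 fitted from %-of-control; points showing resazurin-detected cytotoxicity dropped.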

| Structure (SMILES) | EC50 ([1]; read-out: LUC EC50 (μM) hRORg) [µM] | EC50 ([2]; read-out: LUC EC50 (μM) mRORg) [µM] | EC50 ([1]; read-out: LUC EC50 hRORg) [µM] | EC50 ([2]; read-out: LUC EC50 mRORg) [µM] |
| --- | --- | --- | --- | --- |
| CC(=O)N1C[C@H](C(=O)Nc2ccc(C)cc2C)[C@@H](c2nnc(C(O)CCC(C)(C)C)n2C2CC2)C1 (single isomer, unassigned) [Example F-348] | > 3 | > 3 | – | – |
| CC(=O)N1C[C@H](C(=O)Nc2ccc(C)cc2C)[C@@H](c2nnc(C(O)CCC(C)(C)C)n2C2CC2)C1 (single isomer, unassigned) [Example F-349] | > 3 | > 3 | – | – |
| Cc1ccc(NC(=O)CCc2nnc(C3(O)CC(CC(C)C)C3)n2C2CC2)c(C)c1 (single isomer, unassigned) [Example F-429] | < 3 | < 3 | – | – |
| Cc1ccc(NC(=O)CCc2nnc(C3(O)CC(CC(C)C)C3)n2C2CC2)c(C)c1 (single isomer, unassigned) [Example F-430] | < 3 | < 3 | – | – |
| Cc1ccc(NC(=O)CCc2nnc(C3CC(COC(C)C)C3)n2C2CC2)c(C)c1 (single isomer, unassigned) [Example F-477] | < 3 | < 3 | – | – |
| Cc1ccc(NC(=O)CCc2nnc(C3CC(COC(C)C)C3)n2C2CC2)c(C)c1 (single isomer, unassigned) [Example F-478] | > 3 | < 3 | – | – |
| COC1(CC(C)C)CC(c2nnc([C@H]3CN(C(C)=O)C[C@@H]3C(=O)Nc3ccc(C)cc3C)n2C2CC2)C1 (single isomer, unassigned) [Example F-482] | < 3 | < 3 | – | – |
| COC1(CC(C)C)CC(c2nnc([C@H]3CN(C(C)=O)C[C@@H]3C(=O)Nc3ccc(C)cc3C)n2C2CC2)C1 (single isomer, unassigned) [Example F-483] | < 3 | < 3 | – | – |
| Cc1ccc(NC(=O)C(C)C(CCO)c2nnc([C@H]3C[C@@H](CC(C)C)C3)n2C2CC2)c(C)c1 (single isomer, unassigned) [Example F-490] | > 3 | > 3 | – | – |
| Cc1ccc(NC(=O)C(C)C(CCO)c2nnc([C@H]3C[C@@H](CC(C)C)C3)n2C2CC2)c(C)c1 (single isomer, unassigned) [Example F-491] | > 3 | < 3 | – | – |
| Cc1ccc(NC(=O)C(C)C(CCO)c2nnc([C@H]3C[C@@H](CC(C)C)C3)n2C2CC2)c(C)c1 (single isomer, unassigned) [Example F-492] | > 3 | > 3 | – | – |
| Cc1ccc(NC(=O)C(C)C(CCO)c2nnc([C@H]3C[C@@H](CC(C)C)C3)n2C2CC2)c(C)c1 (single isomer, unassigned) [Example F-493] | < 3 | < 3 | – | – |
| Cc1ccc(NC(=O)[C@H]2CC(CO)C[C@@H]2c2nnc([C@H]3C[C@@H](CC(C)C)C3)n2C2CC2)c(C)c1 (single isomer, unassigned) [Example F-512] | – | – | < 3 | < 3 |
| Cc1ccc(NC(=O)[C@H]2CC(N(C)C)C[C@@H]2c2nnc([C@H]3C[C@@H](CC(C)C)C3)n2C2CC2)c(C)c1 (single isomer, unassigned) [Example F-534] | – | – | < 3 | < 3 |
| Cc1ccc(NC(=O)[C@H]2CC(N(C)C(C)C)C[C@@H]2c2nnc([C@H]3C[C@@H](CC(C)C)C3)n2C2CC2)c(C)c1 (single isomer, unassigned) [Example F-539] | – | – | > 3 | < 3 |
| COC1C[C@@H](C(=O)Nc2ccc(C)cc2C)[C@H](c2nnc([C@H]3C[C@@H](CC(C)C)C3)n2C2CC2)C1 (single isomer, unassigned) [Example F-555] | – | – | > 3 | > 3 |
| COC1C[C@H](C(=O)Nc2ccc(C)cc2C)[C@@H](c2nnc([C@H]3C[C@@H](CC(C)C)C3)n2C2CC2)C1 (single isomer, unassigned) [Example F-556] | – | – | < 3 | < 3 |
| COC1C[C@@H](C(=O)Nc2ccc(C)cc2C)[C@H](c2nnc([C@H]3C[C@@H](CC(C)C)C3)n2C2CC2)C1 (single isomer, unassigned) [Example F-557] | – | – | > 3 | > 3 |
| Cc1ccc(NC(=O)[C@H]2CC(C)(O)C[C@@H]2c2nnc([C@H]3C[C@@H](CC(C)C)C3)n2C2CC2)c(C)c1 (single isomer, unassigned) [Example F-562] | – | – | < 3 | < 3 |
| Cc1ccc(NC(=O)[C@@H]2CC(C)(O)C[C@H]2c2nnc([C@H]3C[C@@H](CC(C)C)C3)n2C2CC2)c(C)c1 (single isomer, unassigned) [Example F-563] | – | – | < 3 | < 3 |
| Cc1ccc(NC(=O)[C@@H]2CC(C)(O)C[C@H]2c2nnc([C@H]3C[C@@H](CC(C)C)C3)n2C2CC2)c(C)c1 (single isomer, unassigned) [Example F-564] | – | – | < 3 | < 3 |

| Structure (SMILES) | EC50 ([1]; read-out: LUC EC50 (μM) hRORg) [µM] | EC50 ([2]; read-out: LUC EC50 (μM) mRORg) [µM] | EC50 ([1]; read-out: LUC EC50 hRORg) [µM] | EC50 ([2]; read-out: LUC EC50 mRORg) [µM] |
| --- | --- | --- | --- | --- |
| Cc1ccc(NC(=O)[C@H]2CC(C)(O)C[C@@H]2c2nnc([C@H]3C[C@@H](CC(C)C)C3)n2C2CC2)c(C)c1 (single isomer, unassigned) [Example F-565] | – | – | < 3 | < 3 |
| Cc1ccc(NC(=O)C[C@H](CC(O)C(F)(F)F)c2nnc([C@H]3C[C@@H](CC(C)C)C3)n2C2CC2)c(C)c1 (single isomer, unassigned) [Example F-621] | – | – | < 3 | < 3 |
| Cc1ccc(NC(=O)C[C@H](CC(O)C(F)(F)F)c2nnc([C@H]3C[C@@H](CC(C)C)C3)n2C2CC2)c(C)c1 (single isomer, unassigned) [Example F-622] | – | – | < 3 | < 3 |
| Cc1ccc(NC(=O)C[C@H](CCC(=O)O)c2noc3c2C(C)CCC3CCC(C)C)c(Cl)c1 (single isomer, unassigned) [Example F-690] | – | – | > 3 | < 3 |
| Cc1ccc(NC(=O)C[C@H](CCC(=O)O)c2noc3c2C(C)CCC3CCC(C)C)c(Cl)c1 (single isomer, unassigned) [Example F-693] | – | – | < 3 | < 3 |
| Cc1ccc(NC(=O)C[C@H](CCC(=O)O)c2noc3c2C(C)CCC3CCC(C)C)c(Cl)c1 (single isomer, unassigned) [Example F-694] | – | – | < 3 | < 3 |
| Cc1ccc(NC(=O)C[C@H](CCC(=O)O)c2noc3c2C(C)CCC3CCC(C)C)c(Cl)c1 (single isomer, unassigned) [Example F-695] | – | – | > 3 | < 3 |
| Cc1ccc(NC(=O)C[C@H](CCC(=O)O)c2noc3c2CCCC3CCC(C)C)c(Cl)c1 (single isomer, unassigned) [Example F-698] | – | – | < 3 | < 3 |
| Cc1ccc(NC(=O)C[C@H](CCC(=O)O)c2noc(-c3cc(CC(C)C)on3)c2C2CC2)c(Cl)c1 [Example E-01] | < 3 | < 3 | – | – |
| Cc1ccc(NC(=O)C[C@H](CCC(=O)O)c2noc(-c3cc(CC(C)C)on3)c2C2CC2)c(F)c1 [Example E-03] | < 3 | < 3 | – | – |
| Cc1ccc(NC(=O)C[C@H](CCC(=O)O)c2noc(-c3cc(CC(C)C)no3)c2C2CC2)c(Cl)c1 [Example E-04, (S)-5-(2-chloro-4-methyl-phenylcarbamoyl)-4-(4-cyclopropyl-3′-isobutyl-[5,5′]biisoxazolyl-3-yl)-pentanoic acid] | < 3 | < 3 | – | – |
| Cc1ccc(NC(=O)C[C@H](CCC(=O)O)c2noc(-c3cc(CCC(C)C)on3)c2C2CC2)c(Cl)c1 [Example E-05] | < 3 | < 3 | – | – |
| Cc1ccc(NC(=O)C[C@H](CCC(=O)O)c2noc(-c3cc(CC(C)(C)C)on3)c2C2CC2)c(Cl)c1 [Example E-06] | < 3 | < 3 | – | – |
| Cc1ccc(NC(=O)C[C@H](CCC(=O)O)c2noc(-c3cc(CC(C)C)[nH]n3)c2C2CC2)c(F)c1 [Example E-07] | > 3 | > 3 | – | – |
| Cc1ccc(NC(=O)C[C@H](CCC(=O)O)c2noc(-c3cc(CCC(C)C)on3)c2C2CC2)c(F)c1 [Example E-09] | < 3 | < 3 | – | – |
| Cc1ccc(NC(=O)C[C@H](CCC(=O)O)c2noc(-c3noc(CCC(C)C)c3Cl)c2C2CC2)c(Cl)c1 [Example E-10] | < 3 | < 3 | – | – |
| Cc1ccc(NC(=O)C[C@H](CCC(=O)O)c2noc(-c3noc(CC(C)C)n3)c2C2CC2)c(Cl)c1 [Example E-11] | < 3 | < 3 | – | – |
| Cc1ccc(NC(=O)C[C@H](CCC(=O)O)c2noc(-c3cc(CC(C)C)on3)c2C(F)(F)F)c(F)c1 [Example E-12] | > 3 | < 3 | – | – |
| Cc1ccc(NC(=O)C[C@H](CCC(=O)O)c2noc(-c3cc(CCC(C)C)on3)c2C(F)(F)F)c(F)c1 [Example E-13] | > 3 | < 3 | – | – |
| Cc1ccc(NC(=O)C[C@H](CCC(=O)O)c2noc(-c3nnc(CC(C)C)s3)c2C2CC2)c(Cl)c1 [Example E-14] | < 3 | < 3 | – | – |
| Cc1ccc(NC(=O)C[C@H](CCC(=O)O)c2noc(-c3ncc(CC(C)C)s3)c2C2CC2)c(Cl)c1 [Example E-15] | < 3 | < 3 | – | – |
